From patent US6818622B2 (Darwin Discovery Ltd., priority 1997, dated 2004)
pIC50: −log10 of the molar value.

Key:
collagenase-3 (MMP-13) = collagenase-3 (MMP-13) (Homo sapiens, UniProt P45452); assay: MMP inhibition activity fluorimetric assay (Example A), MMP-13; assay type: biochemical; details: fluorimetric substrate 10 μM, 37° C.
Protocol: (§1) The potency of inhibitors of collagenase-1 (MMP-1), collagenase-2 (MMP-8), collagenase-3 (MMP-13), gelatinase-A (MMP-2), gelatinase-B (MMP-9) and stromelysin-1 (MMP-3) is determined using the following procedure:
(§2) Inhibitors are dissolved in dimethyl sulphoxide containing 0.02% β-mercaptoethanol, and serial dilutions are prepared. Activated enzyme is incubated in assay buffer containing 50 mM Tris, pH 7.4, 5 mM CaCl2, 0.002% NaN3 and Brij 35 in the presence and absence of inhibitor. Samples are preincubated at 37° C. for 15 minutes before the addition of the fluorimetric substrate (Mca-Pro-Leu-Gly-Leu-Dpa-Ala-Arg-NH2) to a final concentration of 10 μM.
(§3) The enzyme activity is compared to activity in a control devoid of inhibitor.

collagenase-2 (MMP-8) = collagenase-2 (MMP-8) (Homo sapiens, UniProt P22894); assay: MMP inhibition activity fluorimetric assay (Example A), MMP-8; assay type: biochemical; details: fluorimetric substrate 10 μM, 37° C.
Chain of collagenase-2 (MMP-8) (P22894 101-467, species assumed): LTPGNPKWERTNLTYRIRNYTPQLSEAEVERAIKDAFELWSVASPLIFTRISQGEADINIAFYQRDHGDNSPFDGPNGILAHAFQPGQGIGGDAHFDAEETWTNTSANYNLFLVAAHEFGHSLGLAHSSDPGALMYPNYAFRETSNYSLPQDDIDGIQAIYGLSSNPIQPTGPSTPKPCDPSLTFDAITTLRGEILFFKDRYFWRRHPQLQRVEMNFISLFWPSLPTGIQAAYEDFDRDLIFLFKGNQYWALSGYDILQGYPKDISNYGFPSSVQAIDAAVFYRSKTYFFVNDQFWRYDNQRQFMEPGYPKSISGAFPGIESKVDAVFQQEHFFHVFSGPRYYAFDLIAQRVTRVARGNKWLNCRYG
Protocol: as §1, §2, §3

[1] = system: production of TNFα by peripheral blood mononuclear cells (PBMC); assay: Inhibition of TNFα production (Example B); assay type: cell-based; details: read-out: Example B: inhibitor concentration effecting 50% inhibition of the production of TNFα; PBMC stimulated with LPS, 18 hours, ELISA
Protocol: PBMC are isolated from buffy coats by standard procedures using Ficoll. […] After 18 hours the supernatant is assayed for the levels of TNFα using a commercially available ELISA kit. The activity in the presence of 100 μM inhibitor or dilutions thereof is compared to activity in a control devoid of inhibitor.

[2] = system: sIL-1RII shedding by PBMC; assay: Inhibition of sIL-1RII shedding (Example D); assay type: cell-based; details: read-out: Example D: inhibitor concentration effecting 50% inhibition of the shedding of sIL-1RII; PBMC stimulated with IL-13, 18 h, ELISA
Protocol: An assay of sIL-1RII shedding by PBMC is conducted as follows: PBMC are isolated from buffy coats by standard procedures using Ficoll. A 100 μM solution of the inhibitor being tested or dilutions thereof are incubated for 18 h at 37° C. in an atmosphere of 5% CO2 with 2×10^6/ml PBMC stimulated with IL-13. The cells are centrifuged down and the supernatants tested for sIL-1RII using a commercially available ELISA kit. The activity in the presence of 100 μM inhibitor or dilutions thereof is compared to activity in a control devoid of inhibitor.

gelatinase-A (MMP-2) = biological target: T1, gelatinase-A (MMP-2) (Homo sapiens, UniProt P08253); assay: MMP inhibition activity fluorimetric assay (Example A), MMP-2; assay type: biochemical; details: fluorimetric substrate 10 μM, 37° C.
T1 sequence (P08253 110-660): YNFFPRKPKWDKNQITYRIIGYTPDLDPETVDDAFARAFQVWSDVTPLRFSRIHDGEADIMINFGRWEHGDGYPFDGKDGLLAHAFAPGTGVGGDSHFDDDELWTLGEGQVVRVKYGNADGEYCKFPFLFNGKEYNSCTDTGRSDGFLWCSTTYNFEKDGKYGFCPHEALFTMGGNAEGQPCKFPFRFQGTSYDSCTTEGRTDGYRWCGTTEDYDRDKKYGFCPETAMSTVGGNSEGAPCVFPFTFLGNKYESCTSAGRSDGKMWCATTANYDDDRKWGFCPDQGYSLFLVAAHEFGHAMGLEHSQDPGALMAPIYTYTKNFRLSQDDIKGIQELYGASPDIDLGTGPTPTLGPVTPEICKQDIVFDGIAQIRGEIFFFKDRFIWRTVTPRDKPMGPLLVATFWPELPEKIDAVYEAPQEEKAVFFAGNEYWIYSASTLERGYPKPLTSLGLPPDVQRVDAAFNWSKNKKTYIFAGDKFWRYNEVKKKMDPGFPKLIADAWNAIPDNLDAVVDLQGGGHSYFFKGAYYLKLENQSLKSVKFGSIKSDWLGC
Protocol: as §1, §2, §3

[3] = system: L-selectin shedding by peripheral blood mononuclear cells (PBMC); assay: Inhibition of L-selectin shedding (Example C); assay type: cell-based; details: 20 min, read-out: Example C: inhibitor concentration effecting 50% inhibition of the shedding of L-selectin, PBMC stimulated with PMA, ELISA
Protocol: An assay of L-selectin shedding by peripheral blood mononuclear cells (PBMC) is conducted as follows: PBMC are isolated from buffy coats by standard procedures using Ficoll. A 100 μM solution of the inhibitor being tested or dilutions thereof is incubated for 20 min at 37° C. in an atmosphere of 5% CO2 with 4×10^6/ml PBMC stimulated with PMA. The cells are centrifuged down and the supernatants tested for sL-selectin using a commercially available ELISA kit. The activity in the presence of 100 μM inhibitor or dilutions thereof is compared to activity in a control devoid of inhibitor.

stromelysin-1 (MMP-3) = stromelysin-1 (MMP-3) (Homo sapiens, UniProt P08254); assay: MMP inhibition activity fluorimetric assay (Example A), MMP-3; assay type: biochemical; details: fluorimetric substrate 10 μM, 37° C.
Chain of stromelysin-1 (MMP-3) (P08254 100-477, species assumed): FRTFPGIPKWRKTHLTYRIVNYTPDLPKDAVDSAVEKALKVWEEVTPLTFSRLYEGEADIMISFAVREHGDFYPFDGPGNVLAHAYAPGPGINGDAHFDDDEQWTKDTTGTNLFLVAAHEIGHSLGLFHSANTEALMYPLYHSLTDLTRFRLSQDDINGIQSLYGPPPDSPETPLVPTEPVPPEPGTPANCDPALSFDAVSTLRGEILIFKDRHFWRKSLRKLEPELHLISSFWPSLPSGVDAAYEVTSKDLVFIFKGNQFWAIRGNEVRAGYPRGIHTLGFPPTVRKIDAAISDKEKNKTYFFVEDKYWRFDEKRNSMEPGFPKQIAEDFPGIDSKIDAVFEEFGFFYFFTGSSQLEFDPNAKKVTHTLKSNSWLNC
Protocol: as §1, §2, §3

collagenase-1 (MMP-1) = biological target: T2, collagenase-1 (MMP-1) (Homo sapiens, UniProt P03956); assay: MMP inhibition activity fluorimetric assay (Example A), MMP-1; assay type: biochemical; details: fluorimetric substrate 10 μM, 37° C.
T2 sequence (P03956 100-469): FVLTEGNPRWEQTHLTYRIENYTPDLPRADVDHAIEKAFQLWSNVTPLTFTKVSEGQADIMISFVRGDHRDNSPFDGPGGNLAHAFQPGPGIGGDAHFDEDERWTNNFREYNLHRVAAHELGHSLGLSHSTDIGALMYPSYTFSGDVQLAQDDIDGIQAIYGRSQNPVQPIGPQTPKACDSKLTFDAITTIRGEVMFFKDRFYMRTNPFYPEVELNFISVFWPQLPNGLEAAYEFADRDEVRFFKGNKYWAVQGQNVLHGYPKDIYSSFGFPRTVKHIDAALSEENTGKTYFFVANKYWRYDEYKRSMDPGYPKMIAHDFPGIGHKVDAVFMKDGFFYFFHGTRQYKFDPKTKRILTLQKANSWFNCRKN
Protocol: as §1, §2, §3

[4] = system: marmoset joints and tendons; assay: Marmoset tendonitis study; assay type: in vivo; details: oral dosing at 30 and 100 mg/kg for 3 months; for Plasma levels on repeated plasma sampling: up to 9 h post-dose
Protocol: Specific examples of compounds showing the desired profile are those of Examples 1 and 2 and cpd. 3 (see below). These three compounds have been tested in the marmoset tendonitis study. This procedure for this study has been defined by Wojtowicz-Praga et al, supra. The study was performed with oral dosing at 30 and 100 mg/kg for 3 months. […] See Hooper et al, supra.

gelatinase-B (MMP-9) = gelatinase-B (MMP-9) (Homo sapiens, UniProt P14780); assay: MMP inhibition activity fluorimetric assay (Example A), MMP-9; assay type: biochemical; details: fluorimetric substrate 10 μM, 37° C.
Chain of gelatinase-B (MMP-9) (P14780 107-707 limits assumed, species assumed): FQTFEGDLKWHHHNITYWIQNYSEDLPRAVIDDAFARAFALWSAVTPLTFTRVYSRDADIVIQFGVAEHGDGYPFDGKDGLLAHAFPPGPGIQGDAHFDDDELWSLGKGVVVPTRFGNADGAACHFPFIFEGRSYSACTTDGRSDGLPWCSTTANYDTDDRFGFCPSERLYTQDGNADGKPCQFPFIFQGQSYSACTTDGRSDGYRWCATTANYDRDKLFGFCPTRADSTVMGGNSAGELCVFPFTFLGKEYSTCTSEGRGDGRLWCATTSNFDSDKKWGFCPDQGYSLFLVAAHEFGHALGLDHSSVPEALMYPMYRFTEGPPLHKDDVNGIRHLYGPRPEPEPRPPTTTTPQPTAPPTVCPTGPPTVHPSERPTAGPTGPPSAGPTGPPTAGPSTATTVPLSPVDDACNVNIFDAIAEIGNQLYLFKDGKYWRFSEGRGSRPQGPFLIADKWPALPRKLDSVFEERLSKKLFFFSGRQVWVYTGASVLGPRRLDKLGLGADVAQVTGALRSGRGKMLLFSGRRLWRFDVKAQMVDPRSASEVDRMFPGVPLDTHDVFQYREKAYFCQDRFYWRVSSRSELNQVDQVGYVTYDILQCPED
Protocol: as §1, §2, §3

[5] = system: sIL-6R shedding by HL-60 cells; assay: Inhibition of IL-6R shedding (Example E); assay type: cell-based; details: Homo sapiens, read-out: Example E: inhibitor concentration effecting 50% inhibition of the shedding of IL-6R; HL-60 cells stimulated with PMA, 24 h, ELISA
Protocol: An assay of sIL-6R shedding by HL-60 cells is conducted as follows: PBMC are isolated from buffy coats by standard procedures using Ficoll. A 100 μM solution of the inhibitor being tested or dilutions thereof is incubated for 24 h at 37° C. in an atmosphere of 5% CO2 with 2×10^6/ml HL-60 cells stimulated with PMA. The cells are centrifuged down and the supernatants tested for sIl-6R using a commercially available ELISA kit. The activity in the presence of 100 μM inhibitor or dilutions thereof is compared to activity in a control devoid of inhibitor.

[6] = system: shedding of TNF RII by THP-1 cells (human monocytes); assay: Inhibition of TNF RII shedding (Example F); assay type: cell-based; details: read-out: Example F: inhibitor concentration effecting 50% inhibition of the shedding of TNF RII, THP-1 cells stimulated with LPS, 18 hours, ELISA
Protocol: After 18 hours the supernatant is assayed for the levels of sTNF RII using a commercially available ELISA kit. The activity in the presence of 0.1 mM inhibitor or dilutions thereof is compared to activity in a control devoid of inhibitor.

pIC50 (collagenase-3 (MMP-13))	pIC50 (collagenase-2 (MMP-8))	pIC50 (gelatinase-A (MMP-2))	pIC50 (stromelysin-1 (MMP-3))	pIC50 (collagenase-1 (MMP-1))	pIC50 (gelatinase-B (MMP-9))	pIC50 [5]	pIC50 [6]	Compound	pIC50 [1]	pIC50 [2]	pIC50 [3]	Continuous clinical observation [4]	Histological observation of joints and tendons [4]	Plasma levels on repeated plasma sampling [4]
8.70	8.05	7.82	6.75	7.55	8.30	< 4.30	< 4.30	CNC(=O)[C@@H](NC(=O)[C@H](CC(C)C)NC(=O)[C@@H](S)CCCN1C(=O)c2ccccc2C1=O)C(C)(C)C [Cpd. 3, (S)-N-[2-mercapto-5-phthalimido]pentanoyl-L-leucyl-(S)-tert-leucine N-methylamide]	5.00	< 4.30	< 4.30	no adverse effects	no adverse effects on joints and tendons	sustained levels in excess of the enzymes' IC50
8.40	8.00	6.89	6.42	7.92	7.28	< 4.30	< 4.30	CNC(=O)[C@@H](NC(=O)[C@H](CC(C)C)NC(=O)[C@@H](S)CCN1C(=O)CCC1=O)C(C)(C)C [Ex. 1, 2S-[4-(2,5-Dioxopyrrolidin-1-yl)-2S-mercaptobutyrylamino]-4-methylpentanoic Acid (2,2-Dimethyl-1S-methylcarbamoylpropyl)-amide]	< 4.30	4.42	< 4.30	no adverse effects	no adverse effects on joints and tendons	sustained levels in excess of the enzymes' IC50
8.40	8.00	7.39	6.80	7.60	7.60	< 4.30	< 4.30	CNC(=O)[C@@H](NC(=O)[C@H](CC(C)C)NC(=O)[C@@H](S)CCN1C(=O)N(C)C(C)(C)C1=O)C(C)(C)C [Ex. 2, 2S-[2S-Mercapto-4-(3,4,4-trimethyl-2,5-dioxoimidazolidin-1-yl)butyrylamino]-4-methylpentanoic Acid (2,2-Dimethyl-1S-methylcarbamoylpropyl)amide]	< 4.30	< 4.30	< 4.30	no adverse effects	no adverse effects on joints and tendons	sustained levels in excess of the enzymes' IC50
